Entries after “also recorded” stand apart in the source; their conditions may differ.
Tests used:
[1] = ip or oral administration; U.S. Pat. No. 3,995,061; cited from earlier work
[2] = U.S. Pat. No. 3,995,061; cited from earlier work
[3] = test system: glucose transporter 1 (GLUT-1); settings: Jeong et al. 2011; cited from earlier work
[4] = test system: vascular endothelial growth factor (VEGF); settings: Jeong et al. 2011; cited from earlier work
[5] = test system: hnRNP L; settings: Kang et al. 2006, cited from earlier work
[6] = test system: GADPH; assay: Western blot of control protein level in ascochlorin-treated rat embryonic cortical neurons; format: cell-based
Source text: (§1) Compounds that modify hnRNP L levels therefore hold promise as lead structures for the development of ASD/mental retardation/neurological disorders.

[7] = test system: hnRNP L; assay: Western blot of hnRNP L level in ascochlorin-treated cultured rat primary cortical neurons; format: cell-based; settings: rat embryonic/primary cortical neurons, hnRNP L 60 KDa
Source text: as §1

[8] = test system: BIN1; settings: human osteosarcoma cells (U2OS), proteome analysis, Kang et al. 2006; cited from earlier work

Compound	toxicity as assessed by LD50 [1]	tolerability in clinical trials [2]	expression of GLUT-1 [3]	expression of VEGF [4]	hnRNP L protein levels in vitro (in words) ([5]; U2OS osteosarcoma cells)	increase in hnRNP L protein level ([5]; human osteosarcoma cells (U2OS), proteome analysis) [×]	level of the control protein (GADPH 40 KDa) [6]	level of hnRNP L [7]	increase in BIN1 protein level [8] [×]
CCOc1c(Cl)c(C)c(C=O)c(O)c1C/C=C(C)/C=C/C1(C)C(C)CCC(=O)C1C (stereo not shown) [4-O-ethyl-ascochlorin]	low toxicity								
COc1c(Cl)c(C)c(C=O)c(O)c1C/C=C(C)/C=C/[C@@]1(C)[C@H](C)CCC(=O)[C@@H]1C [MAC, 4-O-methylascochlorin]	low toxicity	well tolerated	increases the expression	increases the expression					
CC(/C=C/[C@@]1(C)[C@H](C)CCC(=O)[C@@H]1C)=C\Cc1c(O)c(Cl)c(C)c(C=O)c1O [ascochlorin]					increase hnRNP L protein levels in vitro	12	does not affect the level of the control protein	increases the level of hnRNP L; also recorded: increase hnRNP L levels in neurons; also recorded: increased levels of hnRNP L	10

— patent publication US20210236438A1, “COMPOUNDS AND METHODS FOR THE TREATMENT OF AUTISM SPECTRUM DISORDER AND OTHER NEUROLOGICAL OR PSYCHIATRIC DISORDERS” (Tufts Medical Center, Inc., priority 2018, published 2021)
